Assay results from PMC11912475 (Journal of Medicinal Chemistry, 2025).
Where two headings read alike, the source gives them in different places.

Key:
Assay type in all cases: cell-based
[1] = target: T1, GluN1-GluN2B NMDAR subtype (Homo sapiens, UniProt Q05586+Q13224); assay: FLIPR/Ca2+ assay, NMDAR GluN1-GluN2B subtype in CHO cells
T1 construct: host or cells: NR1-2B-CHO cells, constitutive expression
Experimental: (§1) These compounds were assessed for their effects on specific heterodimeric NMDAR subtypes stably overexpressed in Chinese Hamster Ovary (CHO) cells. The subtypes tested included GluN1-GluN2A, GluN1-GluN2B, GluN1-GluN2C, and GluN1-GluN2D. CHO cells expressing each of the four NMDAR subtypes were incubated with 10 μM L-glutamate, a concentration known to elicit maximal Ca^2+ influx, serving as the stimulus. Intracellular Ca^2+ levels were subsequently measured to determine the extent of NMDAR activation.
(§2) Assay buffer composition was 145 mM NaCl, 5 mM KCl, 2 mM CaCl2, 1 g/Liter D-(+)-glucose, and 20 mM HEPES (pH 7.3 adjusted with NaOH). Cells were plated at a density of 15.000/well in 384 black/clear bottom plates. […] Cells were kept at 30 °C in 5% CO2 incubator for 24 h. Cells were preloaded for 1 h with 2 μM Fluo-4 Ca^2+-sensitive probe, simultaneously with 2.5 mM probenecid, an inhibitor of nonspecific anion transport, and 500 μM ketamine to avoid cytotoxicity. […] Intracellular Ca^2+ level was monitored by FLIPR (excitation wavelength at 470–495 nm, emission wavelength at 515–575 nm) for 10 s before and 5 min after the addition of test items. All test items, including L-glutamate and glycine, were added simultaneously. […] FLIPR data were normalized as 100%, in the presence of 10 μM L-glutamate and 10 μM glycine, while as 0%, in the presence of assay buffer. […] Then, data were normalized by Excel 2013 (Microsoft Office) software, using wells added with 10 μM L-glutamate plus 10 μM glycine (column 23) as high control, and wells added with assay buffer only (column 24) as low control. To assess plate quality, Z′ calculations were performed in Excel. Z′ was calculated according to following equation: Z′ = 1–3(σh + σl)/|μh – μL| where μ and σ are the means and the standard deviations of the means of high (h) and low (l) controls, respectively. Compound concentration–response curves were plotted by Prism 8 GraphPad software, in the different experimental conditions (see Supporting Information). Data were analyzed using least-squares regression fitting, to fit data to a standard four parameters logistic equation using GraphPad Prism10. This regression fitting allowed the calculation of pIC50 and the corresponding SEM.

[2] = target: GluN1-GluN2C NMDAR subtype (Homo sapiens, UniProt Q05586+Q14957); assay: FLIPR/Ca2+ assay, NMDAR GluN1-GluN2C subtype in CHO cells
Chain of GluN1-GluN2C NMDAR subtype (Q14957 20-1233, other chains not shown): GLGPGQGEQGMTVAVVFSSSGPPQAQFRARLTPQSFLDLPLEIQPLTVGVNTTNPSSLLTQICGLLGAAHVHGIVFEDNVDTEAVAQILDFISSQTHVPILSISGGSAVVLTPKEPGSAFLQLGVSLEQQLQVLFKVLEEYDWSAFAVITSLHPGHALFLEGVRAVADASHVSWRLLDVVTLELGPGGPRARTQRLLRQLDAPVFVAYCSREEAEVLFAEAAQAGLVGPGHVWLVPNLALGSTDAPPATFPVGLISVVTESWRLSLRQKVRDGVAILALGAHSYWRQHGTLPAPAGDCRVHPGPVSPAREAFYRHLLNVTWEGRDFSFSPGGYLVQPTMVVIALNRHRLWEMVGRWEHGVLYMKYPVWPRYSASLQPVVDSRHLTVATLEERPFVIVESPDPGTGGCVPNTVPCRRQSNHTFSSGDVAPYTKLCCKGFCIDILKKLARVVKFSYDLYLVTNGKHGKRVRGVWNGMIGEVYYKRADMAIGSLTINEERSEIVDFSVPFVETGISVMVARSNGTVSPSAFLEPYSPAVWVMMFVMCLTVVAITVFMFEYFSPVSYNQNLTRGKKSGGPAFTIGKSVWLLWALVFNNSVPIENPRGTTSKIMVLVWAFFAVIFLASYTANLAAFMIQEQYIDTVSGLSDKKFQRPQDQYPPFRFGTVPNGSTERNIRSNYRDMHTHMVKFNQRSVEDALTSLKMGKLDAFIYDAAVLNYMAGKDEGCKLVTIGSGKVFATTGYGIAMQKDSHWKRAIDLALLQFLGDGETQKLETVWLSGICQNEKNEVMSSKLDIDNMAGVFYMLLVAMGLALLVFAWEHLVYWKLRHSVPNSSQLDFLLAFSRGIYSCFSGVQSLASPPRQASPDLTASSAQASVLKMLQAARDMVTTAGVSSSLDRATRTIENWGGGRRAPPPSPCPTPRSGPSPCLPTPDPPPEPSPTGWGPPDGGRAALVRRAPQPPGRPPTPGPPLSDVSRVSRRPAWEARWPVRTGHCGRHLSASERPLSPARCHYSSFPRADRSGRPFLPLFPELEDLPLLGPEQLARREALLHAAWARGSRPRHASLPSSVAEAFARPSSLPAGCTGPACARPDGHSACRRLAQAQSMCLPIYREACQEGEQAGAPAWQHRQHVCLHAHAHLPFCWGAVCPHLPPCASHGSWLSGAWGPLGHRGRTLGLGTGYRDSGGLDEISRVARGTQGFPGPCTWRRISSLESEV
Experimental: as §1, §2

[3] = target: GluN1-GluN2A NMDAR subtype (Homo sapiens, UniProt Q05586+Q12879); assay: FLIPR/Ca2+ assay, NMDAR GluN1-GluN2A subtype in CHO cells
Experimental: as §1, §2

[4] = target: GluN1-GluN2D NMDAR subtype (Homo sapiens, UniProt O15399+Q05586); assay: FLIPR/Ca2+ assay, NMDAR GluN1-GluN2D subtype in CHO cells
Chain of GluN1-GluN2D NMDAR subtype (O15399 28-1336, other chains not shown): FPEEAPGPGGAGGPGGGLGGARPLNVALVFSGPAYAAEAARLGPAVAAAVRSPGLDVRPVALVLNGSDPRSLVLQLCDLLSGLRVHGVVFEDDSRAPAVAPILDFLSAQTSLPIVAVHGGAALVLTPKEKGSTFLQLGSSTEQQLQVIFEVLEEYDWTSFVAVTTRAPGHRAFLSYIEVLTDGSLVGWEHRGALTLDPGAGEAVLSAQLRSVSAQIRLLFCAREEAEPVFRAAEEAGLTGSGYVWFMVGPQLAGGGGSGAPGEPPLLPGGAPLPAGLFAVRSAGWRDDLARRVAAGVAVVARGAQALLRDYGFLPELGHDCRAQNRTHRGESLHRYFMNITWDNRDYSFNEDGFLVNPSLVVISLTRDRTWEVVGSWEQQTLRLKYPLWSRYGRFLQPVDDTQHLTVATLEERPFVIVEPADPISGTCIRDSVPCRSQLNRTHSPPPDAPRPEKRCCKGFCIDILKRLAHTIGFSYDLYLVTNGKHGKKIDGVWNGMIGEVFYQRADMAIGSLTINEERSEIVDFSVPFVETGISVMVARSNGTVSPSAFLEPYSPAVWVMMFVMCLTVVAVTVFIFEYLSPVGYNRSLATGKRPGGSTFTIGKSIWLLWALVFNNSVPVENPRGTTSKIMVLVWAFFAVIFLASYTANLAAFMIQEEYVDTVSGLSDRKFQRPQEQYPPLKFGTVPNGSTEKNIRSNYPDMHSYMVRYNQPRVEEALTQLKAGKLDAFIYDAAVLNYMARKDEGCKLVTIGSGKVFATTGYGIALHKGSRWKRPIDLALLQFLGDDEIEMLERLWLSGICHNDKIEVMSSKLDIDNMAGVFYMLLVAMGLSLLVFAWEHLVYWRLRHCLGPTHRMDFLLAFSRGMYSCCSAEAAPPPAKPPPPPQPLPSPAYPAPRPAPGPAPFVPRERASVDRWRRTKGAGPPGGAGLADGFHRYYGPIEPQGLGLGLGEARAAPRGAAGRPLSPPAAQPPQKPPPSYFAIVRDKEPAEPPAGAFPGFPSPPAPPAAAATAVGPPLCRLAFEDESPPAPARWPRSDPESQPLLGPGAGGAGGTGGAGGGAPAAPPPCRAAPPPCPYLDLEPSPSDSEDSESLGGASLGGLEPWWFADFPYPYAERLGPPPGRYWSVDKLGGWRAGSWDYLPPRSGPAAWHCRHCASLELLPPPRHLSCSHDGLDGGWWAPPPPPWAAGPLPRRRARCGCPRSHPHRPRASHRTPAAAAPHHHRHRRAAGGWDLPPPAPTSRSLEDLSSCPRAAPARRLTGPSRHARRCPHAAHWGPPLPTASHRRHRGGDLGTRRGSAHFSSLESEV
Experimental: as §1, §2

[5] = CHO cells, 10 μM L-glutamate and 10 μM glycine, n.d. = 50% of inhibition could not be reached at the highest concentration used

T1 sequence (Q13224 27-1484, other chains not shown): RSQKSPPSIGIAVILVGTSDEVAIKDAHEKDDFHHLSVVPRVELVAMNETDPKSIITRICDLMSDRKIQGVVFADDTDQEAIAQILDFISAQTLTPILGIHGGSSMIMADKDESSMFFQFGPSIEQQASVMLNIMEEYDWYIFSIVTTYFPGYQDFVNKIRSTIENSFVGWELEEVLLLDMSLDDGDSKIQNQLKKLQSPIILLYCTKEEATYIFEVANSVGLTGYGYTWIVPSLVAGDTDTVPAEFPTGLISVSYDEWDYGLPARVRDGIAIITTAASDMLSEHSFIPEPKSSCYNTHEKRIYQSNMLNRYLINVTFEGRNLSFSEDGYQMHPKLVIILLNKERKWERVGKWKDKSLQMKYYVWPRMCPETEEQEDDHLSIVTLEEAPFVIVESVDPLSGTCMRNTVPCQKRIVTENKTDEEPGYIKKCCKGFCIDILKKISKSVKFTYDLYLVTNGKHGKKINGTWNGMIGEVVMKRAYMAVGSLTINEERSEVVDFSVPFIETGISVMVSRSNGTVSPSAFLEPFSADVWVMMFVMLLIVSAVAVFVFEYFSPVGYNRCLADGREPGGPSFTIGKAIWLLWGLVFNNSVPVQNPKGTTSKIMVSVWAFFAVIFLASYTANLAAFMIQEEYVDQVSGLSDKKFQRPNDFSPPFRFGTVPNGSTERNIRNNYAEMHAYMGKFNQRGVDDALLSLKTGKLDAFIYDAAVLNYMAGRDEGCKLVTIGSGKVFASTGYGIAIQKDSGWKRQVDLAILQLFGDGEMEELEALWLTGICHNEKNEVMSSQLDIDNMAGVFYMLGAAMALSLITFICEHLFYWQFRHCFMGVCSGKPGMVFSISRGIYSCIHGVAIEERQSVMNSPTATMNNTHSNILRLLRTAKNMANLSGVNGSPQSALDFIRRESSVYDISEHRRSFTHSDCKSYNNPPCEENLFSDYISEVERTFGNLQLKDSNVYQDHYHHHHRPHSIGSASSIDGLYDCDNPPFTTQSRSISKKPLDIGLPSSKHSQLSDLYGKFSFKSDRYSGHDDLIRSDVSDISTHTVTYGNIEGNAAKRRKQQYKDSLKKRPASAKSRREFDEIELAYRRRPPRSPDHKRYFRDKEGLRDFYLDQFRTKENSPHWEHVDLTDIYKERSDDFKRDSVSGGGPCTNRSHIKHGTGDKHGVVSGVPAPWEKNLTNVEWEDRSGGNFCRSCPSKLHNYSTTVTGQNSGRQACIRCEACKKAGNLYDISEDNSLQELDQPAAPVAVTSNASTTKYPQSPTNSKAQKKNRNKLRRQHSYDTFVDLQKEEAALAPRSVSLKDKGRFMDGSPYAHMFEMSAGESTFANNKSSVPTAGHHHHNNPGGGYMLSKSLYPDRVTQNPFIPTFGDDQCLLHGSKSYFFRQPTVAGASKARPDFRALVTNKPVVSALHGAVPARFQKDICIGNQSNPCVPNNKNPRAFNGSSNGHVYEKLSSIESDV

## C[C@@H](CC(C(=O)O)(c1ccccc1)c1ccccc1)N(C)C [(S)-DDVA, 4-(Dimethylamino)-2,2-diphenylpentanoic acid]
[1]; CHO cells, 10 μM L-glutamate and 10 μM glycine, n.d. = 50% of inhibition could not be reached at the highest concentration used, read-out: pIC50 (mean ± SEM) GluN1-GluN2B (converted)
  IC50: > 100 µM
[2]; CHO cells, 10 μM L-glutamate and 10 μM glycine, n.d. = 50% of inhibition could not be reached at the highest concentration used, read-out: pIC50 (mean ± SEM) GluN1-GluN2C (converted)
  IC50: > 100 µM
[3]; CHO cells, 10 μM L-glutamate and 10 μM glycine, n.d. = 50% of inhibition could not be reached at the highest concentration used, read-out: pIC50 (mean ± SEM) GluN1-GluN2A (converted)
  IC50: > 100 µM
[4]; CHO cells, 10 μM L-glutamate and 10 μM glycine, n.d. = 50% of inhibition could not be reached at the highest concentration used, read-out: pIC50 (mean ± SEM) GluN1-GluN2D (converted)
  IC50: > 100 µM

## CCC1=[N+](C)[C@@H](C)CC1(c1ccccc1)c1ccccc1 [(S)-EDDP, 2-Ethyl-1,5-dimethyl-3,3-diphenyl-3,4-dihydro-5H-pyrrolium chloride]
[1]
  IC50: > 100 µM
[2]
  IC50: > 100 µM
[3]
  IC50: > 100 µM
[4]
  IC50: > 100 µM

## COc1ccc2c(c1)[C@]13CCCC[C@@H]1[C@H](C2)N(C)CC3 [dextromethorphan, reference compound]
[1]; [5]
  pIC50 (mean ± SEM) GluN1-GluN2B: 4.8 ± 0.037
[2]; [5]
  pIC50 (mean ± SEM) GluN1-GluN2C: 5.2 ± 0.057
[3]; [5]
  pIC50 (mean ± SEM) GluN1-GluN2A: 4.3 ± 0.029
[4]; [5]
  pIC50 (mean ± SEM) GluN1-GluN2D: 4.6 ± 0.12
